# What was measured:
# Assay type in all cases: cell-based, Xenopus
# [1] = system: Musashi1 S322 phosphorylation; assay: Western blot for S322-phosphorylated Musashi1 in oocyte lysates
# Protocol: Xenopus oocytes were isolated and cultured. Oocytes were induced to mature with 2 μg/ml progesterone. The rate of germinal vesicle breakdown (GVBD) was scored morphologically by observing the appearance of a white spot on the animal pole. Because oocytes from different frogs mature at different rates in response to progesterone, the culture times were standardized between experiments to the time taken for 50% of oocytes to undergo GVBD. Where indicated, oocytes were pre-treated with 50 μM MEK inhibitor, UO126 or DMSO vehicle for 30 minutes.
# Antisera for phosphorylation specific Musashi1 S322 were generated by immunizing rabbits with the peptide VSSYISAAS(phospho)PAPSTGF (SEQ ID NO:26). The antibodies were affinity purified through a peptide-affinity column and used at 1:1000. Abcam antibodies to Musashi1 were used at 1:1000. Sigma Tubulin antibodies were used at 1:20,000. The phospho-specific Cdc2 antibody was used at 1:1000 and detects the inhibitory Tyr15 phosphorylation. The phospho-specific MAP kinase antibody (Cell Signaling) was used at 1:1000 and detects the activating phosphorylations at Thr202/Tyr204. The GST antibody (Santa Cruz) was used at 1:1000. The Xenopus Ringo antibody was used at 1:1000.
# Oocytes were lysed in NP40 lysis buffer containing sodium vanadate and a protease inhibitor cocktail. Where indicated, a portion of the lysate was transferred to STAT-60 for RNA extraction. […]
# Mos mRNA = assay: Polyadenylation assay of endogenous Mos mRNA (RNA ligation-coupled PCR)
# Source text: The increase in PCR product length is specifically due to extension of the poly[A] tail. The primer used to analyze endogenous Xenopus Musashi1 mRNA polyadenylation was [NT] ID NO:24).
# Musashi1 protein = assay: Western blot for endogenous Musashi1 protein accumulation at GVBD50; details: at GVBD50, normalized to tubulin, 3 experiments, p<0.01
# Protocol: Oocytes were lysed in NP40 lysis buffer containing sodium vanadate and a protease inhibitor cocktail. Where indicated, a portion of the lysate was transferred to STAT-60 for RNA extraction. Protein lysates were then spun, clarified and transferred immediately to 1× sample buffer. The lysates were run on a 10% Nupage gel and transferred to a 0.2 μm-pore-size nitrocellulose filter. The membrane was blocked with 1% bovine serum albumin in TBST for 60 min at room temperature. Following incubation with primary antibody, filters were incubated with horseradish peroxidase conjugated secondary antibody using enhanced chemiluminescence in a Fluorchem 8000 Advanced Imager. To determine if Musashi is regulated by progesterone, Musashi levels were detected in progesterone stimulated oocytes using methods described in Example 1. […] Lysates from oocytes treated with or without progesterone were analyzed by western blot for endogenous Musashi1 protein accumulation at GVBD50. Quantifications of fold changes in Musashi1 levels (as indicated below western) were normalized to tubulin from the same sample, and levels in immature oocytes (Imm) arbitrarily set to 1.0. The bar graph of FIG. 1B represents data from 3 independent experiments with S.E.M. (Student's t-test; p<0.01).
Structure (SMILES),"effect on progesterone-stimulated Musashi S322 phosphorylation ([1]; oocytes expressing GST-Musashi1, progesterone stimulated)",effect on initial polyadenylation or translation of the Mos mRNA (Mos mRNA; oocytes treated with MAP kinase signaling inhibitor),"maximum progesterone-induced change in phospho-Musashi1 levels normalized to tubulin, relative to immature oocytes ([1]; uninjected oocytes, endogenous Musashi1, n=4, p<0.05)",time at which Mos mRNA polyadenylation initiates after progesterone stimulation (Mos mRNA; oocytes expressing GST-Musashi),Musashi protein levels in response to progesterone stimulation (Musashi1 protein)
N#CC(=C(/N)Sc1ccccc1N)/C(C#N)=C(/N)Sc1ccccc1N [UO126],significant attenuation,does not prevent,,,
CC(=O)[C@H]1CC[C@H]2[C@@H]3CCC4=CC(=O)CC[C@]4(C)[C@H]3CC[C@]12C [progesterone],,,1.25+/−0.11 fold,approximately 3 hours,increase
